# According to patent publication US20020183277A1, “Combination of vitamin D analogue and pyrimidine nucleoside analogue” (priority 2001, published 2002):
# What was measured:
# [1] = system: cytidine deaminase (CDA) activity in HT-29 cells; test: cytidine deaminase activity in extracts of treated HT-29 cells; type: cell-based, human; details: 10^-7 M; for increase in cytidine deaminase activity: incubation at day 1 for 24 hours, versus isopropanol control
# Experimental: (§1) HT-29 cells (a human colon cancer cell line) were grown in medium to which was added 0.0025% isopropanol as control, 10^−7 M 1α, 25-dihydroxyvitamin D3 or 10^−7 M seocalcitol, respectively. The medium was changed on days 1, 4, 6, 8, 11 and 13, each time with addition of isopropanol, 1α, 25-dihydroxyvitamin D3 or seocalcitol, as appropriate.
# (§2) On each of the indicated days, cells from each culture were harvested, pelleted and frozen. For the cytidine deaminase and thymidine phosphorylase assays, the frozen cell pellet was thawed and resuspended in 150 μl of 0.1 M Tris-Hcl, pH 8.1. The cell suspension was sonicated for 2-5 seconds and centrifuged at 20000×g for 20 minutes at 4° C. 100 μl of cell extract was transferred to Eppendorf tubes containing 0.5 μl 1M DTT.
# (§3) The cytidine deaminase activity in the cell extracts was determined by measuring the conversion of radiolabelled cytidine to […] and uracil. The assay is a combination of the methods described in J. Mejer and P. Nygaard, “Cytosine Arabinoside Phosphorylation and Deamination in Acute Myeloblastic Leukemia Cells”, Leukemia Research 2, 1978 pp. 127-131, and B. R. De Saint Vincent et al., “The Modulation of Thymidine Triphosphate Pool of Chinese Hamster Cells by dCMP Deaminase and UDP Reductase”, J. Biol. Chem. 255, 1980, pp. 162-167, which are hereby incorporated by reference.
# The assay mixture has a total volume of 50 μl and the following composition:
# 2 μl ^3H-cytidine (18.2 Ci/mmol, 1 mCi/ml)
# The substrate and products were separated on PEI-cellulose plates placed in about 1.5 cm of a mixture of isopropanol:water:ethyl acetate 41:22:117.
# [2] = system: thymidine phosphorylase (TP) activity in HT-29 cells; test: thymidine phosphorylase activity in extracts of treated HT-29 cells; type: cell-based, human; details: 10^-7 M; for thymidine phosphorylase activity: at day 11 (control 0.395±0.062); for thymidine phosphorylase activity compared to isopropanol-treated cells: first 5 days
# Experimental: as §1, §2
# (§4) The thymidine phosphorylase activity was determined by measuring the conversion of radiolabelled thymidine to thymine. The assay method used was a slight modification of the method described in T. Sumizawa et al., “Thymidine Phosphorylase Activity Associated with Platelet-Derived Endothelial Cell Growth Factor”, J. Biochem. 114, 1993, pp. 9-14, which is hereby incorporated by reference.
# 10 μl 50 mM sodium phosphate, pH 7.0
# 10 μl mM Tris-HCl, pH 7.6
# 2 μl ^3H-thymidine (5 Ci/mmol, 1 mCi/ml)
# The substrate and product were separated on PEI-cellulose plates placed in about 1.5 cm of water.
# FHC cells = test: growth of FHC cells; type: cell-based; details: normal human colon epithelial cells, 10^-7 M, 14 days
# Experimental: (§5) The effect of administration of 1α, 25-dihydroxyvitamin D3 or seocalcitol (EB 1089) on growth of FHC cells was investigated. FHC cells are normal human colon epithelial cells (ATCC CRL-1831) considered to be a good model of normal human colon epithelium. The cells were grown in a culture medium supplemented with 10^−7 M 1α,25-dihydroxyvitamin D3 or seocalcitol for 14 days.
# [3] = system: cytidine deaminase activity in FHC cells; test: cytidine deaminase activity in FHC cells; type: cell-based, human; details: continuous exposure, period of 11 days, control 0.07±0.03 nmol/min/mg
# Experimental: as §3, §5
# Similarly, cytidine deaminase and thymidine phosphorylase activity in FHC cells following continuous exposure to 1α,25-dihydroxyvitamin D3 or seocalcitol was determined as described in example 1. […]
# [4] = system: thymidine phosphorylase activity in FHC cells; test: thymidine phosphorylase activity in FHC cells; type: cell-based, human; details: continuous exposure, period of 11 days, control 0.25±0.04 nmol/min/mg
# Experimental: as §4, §5
# Similarly, cytidine deaminase and thymidine phosphorylase activity in FHC cells following continuous exposure to 1α,25-dihydroxyvitamin D3 or seocalcitol was determined as described in example 1. The cytidine deaminase and thymidine phosphorylase activity in control cells remained constant at 0.07±0.03 and 0.25±0.04 nmol/min/mg, respectively, over a period of 11 days and was unaffected by the presence of 1α,25-dihydroxyvitamin D3 or seocalcitol.
# [5] = system: cytidine deaminase in HL60 cells; details: human promyeolytic cell line HL60; cited from earlier work
# cytidine deaminase gene = details: HL60, WiDr, Colo 201, Colo 205, CXF 280, DLD-1, MKN 45, MKN 1, MKN 28 and A549 cells; cited from earlier work
# solid tumours = details: clinical efficacy, limited by dose-limiting toxicity; cited from earlier work
# [6] = system: cell growth and enzymatic activity; test: 2 hours versus continuous exposure (previous experiment); type: cell-based; details: 10^-7 M
# [7] = system: estrogen receptor-negative MDA-MB-231 tumours; details: in combination with doxifluridine, MDA-MB-231 tumours in athymic mice; cited from earlier work
# [8] = after 8 days of incubation, p<0.0001
SMILES,"maximum increase in cytidine deaminase activity [1, 8] [fold]",increase in cytidine deaminase activity [1] [fold],thymidine phosphorylase activity [2] [nmol/min/mg],thymidine phosphorylase activity compared to isopropanol-treated cells [2],growth of FHC cells compared to untreated control cells (FHC cells),cytidine deaminase activity in FHC cells [3],thymidine phosphorylase activity in FHC cells [4],cytidine deaminase in HL60 cells [5],expression of the cytidine deaminase gene (cytidine deaminase gene),overall response rate (solid tumours),"increase in cytidine deaminase activity relative to that observed for 1α,25-dihydroxyvitamin D3 [1, 8]",effect on cell growth and enzymatic activity of 2 hours of exposure versus continuous exposure [6],effect of combination treatment versus 22-oxacalcitriol alone [7]
"C=C1/C(=C\C=C2/CCC[C@]3(C)[C@@H]([C@H](C)CCCC(C)(C)O)CC[C@@H]23)C[C@@H](O)C[C@@H]1O [1α,25-dihydroxyvitamin D3]",15.5,4.5,0.323,the same as in isopropanol-treated cells,not significantly affected,unaffected,unaffected,causes an increase,upregulates,,,,
"O=c1[nH]cc(F)c(=O)[nH]1 [5-FU, 5-fluorouracil]",,,,,,,,,,10-30%,,,
C=C1/C(=C\C=C2/CCC[C@]3(C)[C@@H]([C@H](C)/C=C/C=C/C(O)(CC)CC)CC[C@@H]23)C[C@@H](O)C[C@@H]1O [seocalcitol],,4.9,0.672,the same as in isopropanol-treated cells,not significantly affected,unaffected,unaffected,,,,twice,equivalent effect,
C=C1/C(=C\C=C2/CCC[C@]3(C)[C@@H]([C@H](C)OCCC(C)(C)O)CC[C@@H]23)C[C@@H](O)C[C@@H]1O [22-oxacalcitriol],,,,,,,,,,,,,did not exceed that of treatment with 22-oxacalcitriol alone
